Test results published in PubChem BioAssay (NCI).
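Five compound concentrations were applied to cells in 96-well plates for 48 hours; endpoints were derived by simple linear interpolation of the resulting dose-response curve. At the GI50, growth is halved. At the TGI there is no net growth.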

Experiments:
Test in all cases: NCI anticancer screen, dose series, 48 h
[1] = tested on: HCT-15 colon
[2] = tested on: NCI-H460 lung
[3] = tested on: A549 NSCLC
[4] = tested on: SF-539 CNS
[5] = tested on: MCF7 breast
[6] = tested on: UO-31 renal
[7] = tested on: HL-60(TB) leukemia
[8] = tested on: UACC-62 melanoma
[9] = tested on: U251 CNS
[10] = tested on: OVCAR-8 ovarian
[11] = tested on: SF-268 CNS
[12] = tested on: MDA-MB-435
[13] = tested on: K-562 leukemia
[14] = tested on: EKVX NSCLC
[15] = tested on: NCI-H522 lung
[16] = tested on: SNB-75 CNS
[17] = tested on: KM12 colon
[18] = tested on: SNB-19 CNS
[19] = tested on: HOP-62 NSCLC
[20] = tested on: HS 578T breast
[21] = tested on: NCI-H23 lung
[22] = tested on: NCI/ADR-RES ovarian
[23] = tested on: COLO 205 colon
[24] = tested on: T-47D breast
[25] = tested on: SK-OV-3 ovarian
[26] = tested on: HT29 colon
[27] = tested on: LOX IMVI melanoma
[28] = tested on: BT-549 breast
[29] = tested on: OVCAR-3 ovarian
[30] = tested on: ACHN renal
[31] = tested on: SK-MEL-2 melanoma
[32] = tested on: SW-620 colon
[33] = tested on: CCRF-CEM leukemia
[34] = tested on: HCT-116 colon
[35] = tested on: SN12C renal
[36] = tested on: MALME-3M melanoma
[37] = tested on: HOP-92 NSCLC
[38] = tested on: MOLT-4 leukemia
[39] = tested on: IGROV1 ovarian
[40] = tested on: A498 renal
[41] = tested on: RXF 393 renal
[42] = tested on: 786-0 renal
[43] = tested on: SK-MEL-5 melanoma
[44] = tested on: PC-3 prostate
[45] = tested on: NCI-H226 lung
[46] = tested on: RPMI-8226 leukemia
[47] = tested on: OVCAR-4 ovarian
[48] = tested on: MDA-MB-231 breast
[49] = tested on: TK-10 renal
[50] = tested on: HCC-2998 colon
[51] = tested on: SF-295 CNS
[52] = tested on: SR leukemia
[53] = tested on: OVCAR-5 ovarian
[54] = tested on: DU-145 prostate
[55] = tested on: CAKI-1 renal
[56] = tested on: M14 melanoma
[57] = tested on: SK-MEL-28 melanoma
[58] = tested on: UACC-257 melanoma

Compound `CN(C)CCCOc1ccc(NC2=C(Cl)C(=O)C(Nc3ccc(OCCCN(C)C)cc3)=C(Cl)C2=O)cc1` has a GI50 [1] of 411 nM, a TGI [1] of 958 nM and a GI50 [2] of 872 nM. It also gave a TGI [2] of 2550 nM, a GI50 [3] of 731 nM and a TGI [3] of 2120 nM. It also gave a GI50 [4] of 1790 nM, a TGI [4] of 3190 nM and a GI50 [5] of 150 nM. It also gave a TGI [5] of 376 nM, a GI50 [6] of 1100 nM and a TGI [6] of 2440 nM. The GI50 [7] was 732 nM, the TGI [7] was 2020 nM and the GI50 [8] was 1610 nM. The TGI [8] was 3090 nM, the GI50 [9] was 1530 nM and the TGI [9] was 2940 nM. It also gave a GI50 [10] of 446 nM, a TGI [10] of 1040 nM and a GI50 [11] of 1560 nM. It also gave a TGI [11] of 3170 nM, a GI50 [12] of 501 nM and a TGI [12] of 1050 nM. For the same compound, the GI50 [13] was 276 nM, the TGI [13] was 798 nM and the GI50 [14] was 582 nM. The TGI [14] was 1260 nM, the GI50 [15] was 236 nM and the TGI [15] was 602 nM. It also gave a GI50 [16] of 1780 nM, a TGI [16] of 3400 nM and a GI50 [17] of 801 nM. It also gave a TGI [17] of 2250 nM, a GI50 [18] of 1730 nM and a TGI [18] of 3390 nM. It also gave a GI50 [19] of 1830 nM, a TGI [19] of 3310 nM and a GI50 [20] of 1590 nM. For the same compound, the TGI [20] was 4200 nM, the GI50 [21] was 292 nM and the TGI [21] was 1020 nM. For the same compound, the GI50 [22] was 1680 nM, the TGI [22] was 4720 nM and the GI50 [23] was 239 nM. It also gave a TGI [23] of 589 nM, a GI50 [24] of 1960 nM and a TGI [24] of 4960 nM. It also gave a GI50 [25] of 1820 nM, a TGI [25] of 3340 nM and a GI50 [26] of 237 nM. The TGI [26] was 657 nM, the GI50 [27] was 422 nM and the TGI [27] was 902 nM. The GI50 [28] was 1710 nM, the TGI [28] was 3080 nM and the GI50 [29] was 187 nM. The TGI [29] was 353 nM, the GI50 [30] was 1660 nM and the TGI [30] was 3020 nM. It also gave a GI50 [31] of 1660 nM, a TGI [31] of 3310 nM and a GI50 [32] of 297 nM. For the same compound, the TGI [32] was 809 nM, the GI50 [33] was 272 nM and the TGI [33] was 2950 nM. It also gave a GI50 [34] of 183 nM, a TGI [34] of 368 nM and a GI50 [35] of 548 nM. It also gave a TGI [35] of 1050 nM, a GI50 [36] of 336 nM and a TGI [36] of 935 nM. The GI50 [37] was 567 nM, the TGI [37] was 1080 nM and the GI50 [38] was 325 nM. The TGI [38] was 2380 nM, the GI50 [39] was 544 nM and the TGI [39] was 1110 nM. It also gave a GI50 [40] of 1660 nM, a TGI [40] of 3320 nM and a GI50 [41] of 1190 nM. For the same compound, the TGI [41] was 2450 nM, the GI50 [42] was 1590 nM and the TGI [42] was 2980 nM. The GI50 [43] was 1310 nM, the TGI [43] was 2590 nM and the GI50 [44] was 1230 nM. For the same compound, the TGI [44] was 2760 nM, the GI50 [45] was 1920 nM and the TGI [45] was 3830 nM. For the same compound, the GI50 [46] was 2010 nM, the TGI [46] was 5220 nM and the GI50 [47] was 140 nM. For the same compound, the TGI [47] was 270 nM, the GI50 [48] was 656 nM and the TGI [48] was 1490 nM. The GI50 [49] was 1990 nM, the TGI [49] was 3410 nM and the GI50 [50] was 769 nM. It also gave a TGI [50] of 2090 nM, a GI50 [51] of 1670 nM and a TGI [51] of 3190 nM. The GI50 [52] was 312 nM, the TGI [52] was 3250 nM and the GI50 [53] was 1690 nM. It also gave a TGI [53] of 3180 nM, a GI50 [54] of 563 nM and a TGI [54] of 1130 nM. The GI50 [55] was 1910 nM, the TGI [55] was 3530 nM and the GI50 [56] was 1450 nM. For the same compound, the TGI [56] was 2900 nM, the GI50 [57] was 1740 nM and the TGI [57] was 3160 nM. It also gave a GI50 [58] of 793 nM and a TGI [58] of 2290 nM.
